# “Also recorded” adds a separate entry of the source. Peptide text beside a SMILES is read from it. * marks the point of attachment. Cbz = O=C(OCc1ccccc1)*; CH2F = FC*
# Experiments:
# [1] = tested on: bortezomib or carfilzomib-resistant MM and WM cell lines; test: VLX1570-sensitivity screen (Celltiter Glo viability assay); format: cell-based, human; settings: bortezomib/carfilzomib-resistant tumor cells
# Description: FIG. 5 is a graph plotting sensitivity of bortezomib or carfilzomib-resistant tumor cells to drugs with a mechanism directed at targets upstream of the 20S proteasome. An inhibitor of the deubiquitinase (DUB) enzymes located in the 19S cap of the proteasome that are upstream of β5 and β1i, was used.
# OPM2 cell line (WT) = test: MTS assay, OPM2 WT; format: cell-based; settings: Homo sapiens, OPM-2
# Description: (§1) FIGS. 1A-1C show the characterization of bortezomib-resistance (BR) models, established by subjecting plasma cell cancer cell lines (n=6) chronic drug exposure. FIG. 1A is a graph plotting the results of an MTS assay for an OPM2 cell line (representative model).
# (§2) To investigate the mechanism of induction of bortezomib resistance, preclinical models of acquired bortezomib resistance (BR) were developed using human MM and WM cell lines.
# OPM2 BR derivative = test: MTS assay, OPM2 BR derivative; format: cell-based; settings: Homo sapiens, OPM-2
# Description: as §1, §2
# BCWM.1 cell line = test: MTS viability assay, BCWM.1; format: cell-based, human
# Protocol: (§3) FIGS. 4A-4D show the characterization of BR WM models, established by subjecting WM cancer cell lines (n=3) chronic drug exposure. […] FIG. 4C is a graph plotting relative fluorescence units in an assay to examine PSMB5 enzyme function by flow cytometry.
# (§4) Twenty thousand cells/200 μl in quadruplicates were incubated with serially diluted b-AP15 (1-1000 nmol/l) in 96-well plates at 37° C. for 72 hours. MTS (3-(4,5-dimethylthiazol-2-yl)-5-(3-carboxymethoxyphenyl)-2-(4-sulfophenyl)-2H-tetrazolium) reagent (Molecular Probes, Eugene, Oreg.) was added at 40 μl/well and the plates were further incubated at 37° C. for 3 hours and the developed color was read at 490 nm using a BioTek synergy HT plate reader against blanks with no cells.
# BCWM.1/BR = test: MTS viability assay, BCWM.1/BR; format: cell-based, human
# Protocol: as §3, §4
# MWCL-1 cells = test: MTS viability assay, MWCL-1; format: cell-based, human; settings: Homo sapiens, MTS assay
# Protocol: as §4
# MWCL-1/BR = test: MTS viability assay, MWCL-1/BR; format: cell-based, human; settings: Homo sapiens; MTS assay, MWCL-1/BR
# Protocol: as §4
# RPCI-WM1 = test: MTS viability assay, RPCI-WM1; format: cell-based, human; settings: Homo sapiens, MTS assay
# Protocol: as §4
# RPCI-WM1/BR = test: MTS viability assay, RPCI-WM1/BR; format: cell-based, human; settings: Homo sapiens, MTS assay
# Protocol: as §4
# [2] = tested on: BR human MM and WM cell lines; test: Growth insensitivity of BR cell lines vs WT counterparts; format: cell-based; settings: BR cell lines compared to respective WT counterparts
# Description: as §2
# [3] = biological target: T1, 20S proteasome b5 subunit (Homo sapiens, UniProt P28074); test: Proteasomal activity assay, chymotrypsin-like (LLVY-AMC), WM cells; format: biochemical; settings: 10 nmol/l; WT and BR WM cells
# T1 construct: Cells were lysed at 4×10^6 cells/ml in proteasomal activity assay buffer; endogenous in cells; host or cells: BCWM.1, MWCL-1, RPCI-WM1 and their BR subclones (lysates)
# T1 sequence (P28074 60-263): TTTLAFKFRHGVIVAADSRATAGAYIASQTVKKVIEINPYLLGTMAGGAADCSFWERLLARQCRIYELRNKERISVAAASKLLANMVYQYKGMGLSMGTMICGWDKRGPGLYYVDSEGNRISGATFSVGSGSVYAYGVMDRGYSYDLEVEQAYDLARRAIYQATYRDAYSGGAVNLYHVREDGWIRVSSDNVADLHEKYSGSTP
# Protocol: FIGS. 10A and 10B are a series of graphs plotting the effect of b-AP15 treatment on 20S proteasome, b5-subunit (chymotrypsin-like) catalytic activity in WT and BR WM cells.
# Cells were lysed at 4×10^6 cells/ml in proteasomal activity assay buffer [assay buffer; 25 mmol/1 HEPES buffer, pH7.5 containing 0.5 mmol/1 EDTA, 0.05% Nonidet P-40, 0.01% sodium dodecyl sulfate (SDS)] and immediately used in the assay. Enzyme reactions were performed in 96-well plates with 100 μl of final volume containing […] fluorogenic peptide substrates. The substrates used were LLVY-AMC for chymotrypsin like activity, LLE-AMC for caspase-like activity and LRR-AMC for trypsin-like activity. Reactions were incubated at 37° C. for 1 hour and fluorescence was measured at 360/460 using a BioTek synergy HT plate reader (BioTek, Winooski, Vt.).
# β5/PSMB5 = β5/PSMB5 (Homo sapiens, UniProt P28074); test: 26S proteasome activity, Suc-LLVY-AMC cleavage, WT and BR plasma cell cancer cells; format: biochemical; settings: in the presence of bortezomib
# Protocol: FIGS. 3A-3C are a series of graphs showing that bortezomib resistance is associated with increased proteasomal enzymatic activity.
# Studies were performed to investigate whether an increase in β1i and β5 proteins corresponded with increased protease activity. WT and BR cancer cells were incubated with β1i specific (Ac-PAL-AMC substrate) and β5 specific (Suc-LLVY-AMC substrate) fluorogenic peptides (condition details in FIG. 3 description above). β5 chymotryptic activity (primary target of bortezomib) was assessed first and found in BR cells.
# [4] = tested on: treatment naïve MM patients; settings: bortezomib-based therapies; cited from earlier work
# MCL patients = settings: bortezomib-based therapies; cited from earlier work
# WT and BR WM cells = test: Mitochondrial outer membrane permeability (TMRM), WM cell lines; format: cell-based, human; settings: pre-treatment with pan-caspase inhibitor
# Protocol: Cells were treated with different agents for 48 hours and assessed for MOMP using tetramethylrhodamine methyl ester [TMRM] (Life Technologies). TMRM was directly added to the cell cultures at 100 nmol/1 concentrations and incubated at 37° C. in the dark for 15 minutes. At the end of the incubation, cells were washed twice with cold PBS containing 2% FBS and analyzed. The cells were washed for fluorescence (FL2) and analyzed by BD Accuri, the C6 flow cytometer and its software. Data from at least 20,000 events per sample were collected and analyzed. TMRM-negative (%) cells were calculated to determine % MOMP.
structure (smiles),measurement,setting,value
C=CC(=O)N1CC/C(=C\c2ccc(F)c([N+](=O)[O-])c2)C(=O)/C(=C/c2ccc(F)c([N+](=O)[O-])c2)C1 [VLX1570],cytotoxicity,[1],comparable cytotoxicity
CC(C)C[C@H](NC(=O)[C@H](Cc1ccccc1)NC(=O)c1cnccn1)B(O)O [bortezomib],IC50,OPM2 cell line (WT),6.14 nM
same,IC50,OPM2 BR derivative,> 50 nM
same,IC50,"BCWM.1 cell line; Homo sapiens, BCWM1, MTS assay",18 nM
same,IC50,BCWM.1 cell line; MTS assay,11.4 nM
same,IC50,"BCWM.1/BR; Homo sapiens, BCWM1, MTS assay",> 1000 nM
same,IC50,BCWM.1/BR; MTS assay,720 nM
same,IC50,MWCL-1 cells,16.6 nM
same,IC50,MWCL-1/BR,65.2 nM
same,IC50,RPCI-WM1,27 nM
same,IC50,RPCI-WM1/BR,125 nM
same,"increase in growth insensitivity, BR vs WT",[2],> 100 fold
same,chymotrypsin-like activity (LLVY) of the b5 subunit,[3],significantly diminished
same,chymotryptic β5 activity,β5/PSMB5,decreased; also recorded: inhibited the chymotryptic activity; also recorded: nearly abrogated
same,response rate,[4],about 100%
same,response rate,MCL patients,about 75%
CC(C)C[C@H](NC(=O)[C@H](CCc1ccccc1)NC(=O)CN1CCOCC1)C(=O)N[C@@H](Cc1ccccc1)C(=O)N[C@@H](CC(C)C)C(=O)[C@@]1(C)CO1 [carfilzomib],chymotrypsin-like activity (LLVY) of the b5 subunit,[3],significantly diminished
COC(=O)C[C@H](NC(=O)[C@H](C)NC(=O)[C@@H](NC(=O)OCc1ccccc1)C(C)C)C(=O)CF [z.VAD.fmk] (Cbz-Val-Ala-Asp(OMe)-CH2F),MOMP in b-AP15 co-treated WM cells,WT and BR WM cells,significantly reduced MOMP

# Reference: patent publication US20170128518A1, “METHODS AND MATERIALS FOR IDENTIFYING AND TREATING MAMMALS RESISTANT TO PROTEASOME INHIBITOR TREATMENTS” (Mayo Foundation for Medical Education and Research, priority 2014, published 2017)
